Values of other authors as cited in patent US20030215917A1, “Assay for evaluation of activity of compounds against HCV using a novel detection system in the HCV replicon” (priority 2002, published 2003).

How the values were obtained:
[1] = test system: Hepatitis B virus (HBV), Hepatitis C virus (HCV), Yellow Fever virus, Dengue Virus, Japanese Encephalitis, West Nile virus and related flaviviruses
HCV replicon cells = details: at high concentration; stated as known
HCV and HCV replicon = details: stated as known

Compound	activity against viruses [1]	inhibition of the replication of the virus (viral growth) [1]	toxicity to the host cells (host cells)	cytotoxicity effect (HCV replicon cells)	inhibition of viral replication (HCV and HCV replicon)
O=C1OCc2c1cc1ccc3c(c1c2-c1ccc2c(c1)OCO2)OCO3 [Helioxanthin]	high activity	potent inhibition	very low toxicity	known to have cytotoxicity effect at high concentration	
interferon alpha					known to inhibit viral replication
